In PMC7456637, “Pharmacokinetic characterization of fluorocoxib D, a cyclooxygenase-2-targeted optical imaging agent for detection of cancer” (Journal of Biomedical Optics, 2020):
Where “and” joins values, the source holds several entries; their conditions need not be identical. Identical values can stand only once. Entries after “also recorded” stand apart in the source; their conditions may differ.

Legend:
[1] = Pilot safety study: serum chemistry profile; assay type: in vivo, dog; settings: 3 days after single dose 1 mg/kg i.v.
Procedure: (§1) The animal studies were performed in the accordance with the University of Tennessee Institutional Animal Care and Use Committee (UT IACUC)-approved protocols and in an accordance with NIH guidelines. Individually housed research healthy female beagle dogs (Covance Research Product) with weights of 6.7 to 10.3 kg were used to assess the safety and pharmacokinetic parameters of fluorocoxib D administrated a dose of 1 mg/kg over 20 min intravenously (i.v.).
(§2) For single dose safety evaluation studies, we administrated fluorocoxib D at 1 mg/kg , i.v. using a preplaced cephalic or saphenous vein catheter over 20 min to six healthy research dogs following protocol as described previously.[38] Briefly, physical examinations for signs of potential drug toxicity were performed before, during, and daily for 3 days after fluorocoxib D administration. Physical assessment included auscultation of heart and lungs, abdominal palpation, body temperature, appetite, attitude, activity levels monitoring, and other health-related events. Hypersensitivity was evaluated by direct observation of each dog during treatment for clinical signs of an allergic reaction (facial swelling, flushing, urticaria, dyspnea, scratching, and changes of heart rates). […] Laboratory evaluations of blood and urine were carried out before and 3 days after fluorocoxib D administration to monitor signs of toxicity. Blood (up to 3 ml) was collected into ethylenediaminetetraacetic acid (EDTA) and heparin-treated tubes, and urine (up to 5 ml) was collected by cystocentesis or from the floor of the runs. The laboratory evaluation consisted of a complete blood count (CBC), serum chemistry profile, and complete urinalysis. The CBC evaluated total white blood cells (WBC) and hematocrit (HCT), in addition to absolute numbers of neutrophils, lymphocytes, monocytes, eosinophils, and platelets. The plasma chemistry profile evaluated blood urea nitrogen (BUN), creatinine, proteins (albumin, globulins, and total proteins), alanine aminotransferase (ALT), total bilirubin, glucose, and electrolytes. The complete urinalysis evaluated urine proteins, glucose, and ketones; a sediment examination and urine-specific gravity were validated as well for any possible signs of renal toxicity of fluorocoxib D. All laboratory tests were carried out at the Veterinary Medical Center of the University of Tennessee in Knoxville.

[2] = set-up: method as in earlier work; settings: cited from earlier work
[3] = Pharmacokinetics of fluorocoxib D in research dogs, plasma HPLC; assay type: in vivo, dog
Procedure: as §1
To determine the pharmacokinetic parameters of fluorocoxib D ( 1 mg/kg , i.v.) in dogs, blood (2 to 3 ml) was collected from the jugular vein into EDTA-treated tubes at 0, 0.5, 1, 2, 4, 8, and 24 h after compound administration. The blood was centrifuged within 20 min of sample collection. Plasma was removed and stored at −80°C until further HPLC analysis.
Levels of fluorocoxib D were determined in collected canine plasma samples using HPLC at Vanderbilt University (JU). The frozen samples were thawed and extracted with acetonitrile. The organic layer was collected, dried, and reconstituted in methanol and water. The unknown samples were quantitated against a 5-point standard curve, which was prepared by mixing known quantities of fluorocoxib D with commercial canine plasma (Sigma-Aldrich) and subjecting the resulting samples to liquid–liquid extraction and HPLC. Samples were analyzed using a reverse-phase column (C18, 5×0.2 cm , Phenomenex) with gradient elution. The mobile phase component A was water, and B was acetonitrile, each containing 0.1% acetic acid. The gradient was 50% B to 90% B over 5 min, followed by a brief hold and return to initial conditions. The flow rate was 0.3 ml/min .
The pharmacokinetic parameters for fluorocoxib D were estimated from the plasma concentration-time data by a nonlinear mixed effects approach, as implemented with Monolix 4.1.2 (Lixoft S.A.S., Orsay, France). This approach allowed analyzing data from all animals at the same time and was ideal for relatively sparse datasets like the one used in this study. The plasma clearance (Cl), representing the overall ability of the body to eliminate fluorocoxib D, was determined by scaling its elimination rate (amount per time) by the corresponding plasma concentration level. The volume of distribution (Vd) was defined as the ratio of the total amount of fluorocoxib D in the body to the blood plasma concentration. The Cl and Vd were estimated directly from the study population data. The peak concentration in plasma ( Cmax ) and the following pharmacokinetic parameters were obtained by averaging the corresponding post-hoc Bayesian estimates. The individual partial areas under the curve between times 0 and 8 h ( AUC0−8 ) and the AUC0−∞ with extrapolation to infinity were calculated using the log-linear trapezoidal rule, as implemented with WinNonlin 5.1 (Pharsight, Mountain View, California). The mean residence time (MRT) value was determined as the ratio of the area under the first moment curve over AUC0−∞ . The elimination rate constant was determined as the slope obtained by linear regression of the terminal log-linear portion of the concentration versus time curve, and the elimination half-life ( t1/2 ) was then calculated. The plasma concentration graphs were generated using calculated averaged plasma concentrations of fluorocoxib D from six dogs after 1 mg/kg i.v. of fluorocoxib D administration performed over 20 min.

[4] = Pilot safety study: complete blood count (CBC); assay type: in vivo, dog
Procedure: as §1, §2

[5] = Pilot safety study: physical examination and adverse events; assay type: in vivo, dog
Procedure: as §1
as §2, with “Blood (up to 3 ml) was collected into ethylenediaminetetraacetic acid (EDTA) and heparin-treated tubes, and urine (up to 5 ml) was collected by cystocentesis or from the floor of the runs. The laboratory evaluation consisted of a complete blood count (CBC), serum chemistry profile, and complete urinalysis.” left out

[6] = female, beagle, dog, plasma, iv, 1 mg/kg i.v., six research dogs, mean ± S.D.

## COc1ccc2c(c1)c(CC(=O)NCCCCNC(=O)c1ccc(C3=c4cc5c6c(c4Oc4c3cc3c7c4CCCN7CCC3)CCC[N+]=6CCC5)cc1)c(C)n2C(=O)c1ccc(Cl)cc1 [Fluorocoxib D, N -[(rhodamin-X-yl)but-4-yl]-2-[1-(4-chlorobenzoyl)-5-methoxy-2-methyl-1H-indol-3-yl]acetamide]
[1]; dogs #1, #3, #6, reference range 0.1 to 0.6
  TOT BILI (total bilirubin), After: 0.1 mg/dL
[1]; individual dogs #1-#6, reference range 0.3 to 1.1, 1 mg/kg
  CREATI (creatinine), After: 0.8 mg/dL (3×) and 0.6 mg/dL (3×)
[1]; individual dogs #1-#6, reference range 0.65 to 0.98, 1 mg/kg
  MAG (magnesium), After: 0.7 mmol/L (4×) and 0.8 mmol/L (2×)
[1]; individual dogs #1-#6, reference range 1.9 to 3.1, 1 mg/kg
  GLOB (globulin), After: 2.3 g/dL (2×) and 2 g/dL (2×) and 2.6 g/dL and 2.1 g/dL
[1]; individual dogs #1-#6, reference range 2.5 to 5.9, 1 mg/kg
  PHOS (phosphorus), After: 3.5 mg/dL and 4.3 mg/dL and 3.3 mg/dL and 3.9 mg/dL and 3.4 mg/dL and 3.6 mg/dL
[1]; individual dogs #1-#6, reference range 2.8 to 4.7, 1 mg/kg
  POTAS (potassium), After: 3.9 mEq/L and 4.2 mEq/L and 3.7 mEq/L (2×) and 3.5 mEq/L and 3.8 mEq/L
[1]; individual dogs #1-#6, reference range 3.2 to 4.3, 1 mg/kg
  ALBUM (albumin), After: 3.1 L g/dL and 3.4 g/dL (2×) and 3 L g/dL and 3.5 g/dL and 3.3 g/dL
[1]; individual dogs #1-#6, reference range 5.4 to 6.8, 1 mg/kg
  TOT. PROT (total proteins), After: 5.4 g/dL (2×) and 5.7 g/dL and 5.6 g/dL (2×) and 5.2 L g/dL
[1]; individual dogs #1-#6, reference range 7 to 37, 1 mg/kg
  BUN (blood urea nitrogen), After: 12 mg/dL and 17 mg/dL (2×) and 14 mg/dL and 16 mg/dL and 19 mg/dL
[1]; individual dogs #1-#6, reference range 10 to 12, 1 mg/kg
  CAL (calcium), After: 9.5 L mg/dL and 10 mg/dL and 9.9 L mg/dL and 9.7 L mg/dL and 10.3 mg/dL and 9.4 L mg/dL
[1]; individual dogs #1-#6, reference range 18 to 100, 1 mg/kg
  ALT (alanine aminotransferase), After: 26 U/L (2×) and 23 U/L and 22 U/L (2×) and 25 U/L
[1]; individual dogs #1-#6, reference range 82 to 132, 1 mg/kg
  GLUCO (glucose), After: 94 mg/dL and 103 mg/dL and 100 mg/dL and 91 mg/dL and 105 mg/dL and 110 mg/dL
[1]; individual dogs #1-#6, reference range 112 to 119, 1 mg/kg
  CHLOR (chlorine), After: 111 L mEq/L and 114 mEq/L (2×) and 113 mEq/L and 112 mEq/L and 116 mEq/L
[1]; individual dogs #1-#6, reference range 141 to 147, 1 mg/kg
  SOD (sodium), After: 144 mEq/L and 146 mEq/L (2×) and 147 mEq/L (2×) and 148 H mEq/L
[2]
  Water solubility compared to fluorocoxib A: improved water solubility
[3]; 1 mg/kg i.v. over 20 min, dogs, HPLC
  Peak concentration in plasma: 114.8 ± 50.5 ng/mL
[3]; 1 mg/kg i.v., dogs, HPLC
  Detection in plasma after 4 h following administration: No fluorocoxib D was detected; also recorded: No detectable levels
[3]; female, beagle, dog, plasma, iv, 1 mg/kg i.v. over 20 min, dogs, read-out: Time of peak plasma concentration after administration
  Tmax: 30 min
[3]; female, beagle, dog, plasma, iv, 1 mg/kg i.v. over 20 min, six research dogs, mean ± S.D.
  Cmax: 110 ± 50 ng/mL
[3]; [6]
  AUC(0-inf): 150 ± 50 ng·h/mL
  MRT: 87.6 ± 25.2 min
[3]; female, beagle, dog, plasma, iv, 1 mg/kg i.v., six research dogs, mean ± S.D., read-out: AUC0-8
  AUC(0-t): 110 ± 40 ng·h/mL
[3]; female, beagle, dog, plasma, iv, 1 mg/kg i.v., six research dogs, mean ± S.D., read-out: Cl (clearance) (converted)
  clearance: 123 mL/min/kg
[3]; female, beagle, dog, plasma, iv, 1 mg/kg i.v., six research dogs, mean ± S.D., read-out: Vdarea (volume of distribution)
  Vd: 9.97 ± 4.76 L/kg
[3]; female, beagle, dog, plasma, iv, 1 mg/kg i.v., six research dogs, mean ± S.D., read-out: t1/2 (terminal/elimination half-life) (converted)
  half-life: 54.6 ± 17.4 min
[4]; 3 days after single dose 1 mg/kg i.v., dog #3, ADQ = adequate
  PLT EST (platelet estimate), After: ADQ
[4]; 3 days after single dose 1 mg/kg i.v., dog #3, reference range 147 to 423
  PLT CNT (platelets counts), After: 241000 µL⁻¹
[4]; 3 days after single dose 1 mg/kg i.v., dog #6, reference range 0 to 0.3
  Abs BAN (absolute band neutrophils), After: 0 µL⁻¹
[4]; 3 days after single dose 1 mg/kg i.v., individual dogs #1-#6, reference range 0 to 0.85, 1 mg/kg
  Abs EOS (absolute eosinophils), After: 240 µL⁻¹ and 360 µL⁻¹ and 140 µL⁻¹ and 200 µL⁻¹ and 180 µL⁻¹ and 170 µL⁻¹
[4]; 3 days after single dose 1 mg/kg i.v., individual dogs #1-#6, reference range 0.165 to 0.85, 1 mg/kg
  Abs MON (absolute monocytes), After: 230 µL⁻¹ and 300 µL⁻¹ and 240 µL⁻¹ and 490 µL⁻¹ and 380 µL⁻¹ and 620 µL⁻¹
[4]; 3 days after single dose 1 mg/kg i.v., individual dogs #1-#6, reference range 1.1 to 4.6, 1 mg/kg
  Abs LYM (absolute lymphocytes), After: 1610 µL⁻¹ and 2050 µL⁻¹ and 2220 µL⁻¹ and 1880 µL⁻¹ and 2300 µL⁻¹
[4]; 3 days after single dose 1 mg/kg i.v., individual dogs #1-#6, reference range 2.65 to 9.8, 1 mg/kg
  Abs SEG (absolute segmented neutrophils), After: 3.22 ×10^3/μl and 2.98 ×10^3/μl and 4 ×10^3/μl and 4.72 ×10^3/μl and 5.07 ×10^3/μl and 2.4 L ×10^3/μl
[4]; 3 days after single dose 1 mg/kg i.v., individual dogs #1-#6, reference range 5.1 to 14, 1 mg/kg
  WBC (white blood cells), After: 5.3 ×10^3/μl (2×) and 5.7 ×10^3/μl and 6.6 ×10^3/μl and 7.3 ×10^3/μl and 7.8 ×10^3/μl
[4]; 3 days after single dose 1 mg/kg i.v., individual dogs #1-#6, reference range 41 to 60, 1 mg/kg
  HCT (hematocrit), After: 45.2% and 47.2% (2×) and 45.6% and 47% and 48.1%
[4]; dog #6, remained afebrile and clinically normal, cause uncertain
  Neutrophil finding 3 days after administration: mild neutropenia
[5]; 1 mg/kg i.v. over 20 min, six research dogs
  Adverse events including diarrhea, vomiting, nausea, and loss of appetite: not observed
[5]; 1 mg/kg i.v. over 20 min, six research dogs, 3 days observation
  Overall safety / toxicity of single dose: No evidence of toxicity; also recorded: safe dose; also recorded: no clinically relevant adverse events
[5]; one dog of six, during 20 min i.v. administration, attributed to DMSO solvent
  Salivation during administration: increased salivation
